Measured values reported in ChEMBL document CHEMBL1201861, “Genomics of Drug Sensitity in Cancer screening data, Wellcome Trust Sanger Institute”.

Legend:
Assay in all cases: cells
HCE-T = assay type: functional, cell-based, Homo sapiens
Description: SANGER: Inhibition of human HCE-T cell growth in a cell viability assay.

KU812 cell line = assay type: functional, cell-based, Homo sapiens
Description: SANGER: Inhibition of human KU812 cell growth in a cell viability assay.

SW872 = assay type: functional, cell-based, Homo sapiens
Description: SANGER: Inhibition of human SW872 cell growth in a cell viability assay.

697 = assay type: functional, cell-based, Homo sapiens
Description: SANGER: Inhibition of human 697 cell growth in a cell viability assay.

Calu-6 = assay type: functional, cell-based, Homo sapiens
Description: SANGER: Inhibition of human Calu-6 cell growth in a cell viability assay.

KG-1 = assay type: functional, cell-based, Homo sapiens
Description: SANGER: Inhibition of human KG-1 cell growth in a cell viability assay.

TE-1 = assay type: functional, cell-based, Homo sapiens
Description: SANGER: Inhibition of human TE-1 cell growth in a cell viability assay.

MZ7-mel = assay type: functional, cell-based, Homo sapiens
Description: SANGER: Inhibition of human MZ7-mel cell growth in a cell viability assay.

LNCaP-Clone-FGC = assay type: functional, cell-based, Homo sapiens
Description: SANGER: Inhibition of human LNCaP-Clone-FGC cell growth in a cell viability assay.

DEL = assay type: functional, cell-based, Homo sapiens
Description: SANGER: Inhibition of human DEL cell growth in a cell viability assay.

A101D = assay type: functional, cell-based, Homo sapiens
Description: SANGER: Inhibition of human A101D cell growth in a cell viability assay.

ACN = assay type: functional, cell-based, Homo sapiens
Description: SANGER: Inhibition of human ACN cell growth in a cell viability assay.

LU-134-A = assay type: functional, cell-based, Homo sapiens
Description: SANGER: Inhibition of human LU-134-A cell growth in a cell viability assay.

D-263MG = assay type: functional, cell-based, Homo sapiens
Description: SANGER: Inhibition of human D-263MG cell growth in a cell viability assay.

MLMA = assay type: functional, cell-based, Homo sapiens
Description: SANGER: Inhibition of human MLMA cell growth in a cell viability assay.

MC116 = assay type: functional, cell-based, Homo sapiens
Description: SANGER: Inhibition of human MC116 cell growth in a cell viability assay.

GT3TKB = assay type: functional, cell-based, Homo sapiens
Description: SANGER: Inhibition of human GT3TKB cell growth in a cell viability assay.

NB5 = assay type: functional, cell-based, Homo sapiens
Description: SANGER: Inhibition of human NB5 cell growth in a cell viability assay.

MHH-PREB-1 = assay type: functional, cell-based, Homo sapiens
Description: SANGER: Inhibition of human MHH-PREB-1 cell growth in a cell viability assay.

MMAC-SF = assay type: functional, cell-based, Homo sapiens
Description: SANGER: Inhibition of human MMAC-SF cell growth in a cell viability assay.

LS-513 = assay type: functional, cell-based, Homo sapiens
Description: SANGER: Inhibition of human LS-513 cell growth in a cell viability assay.

MZ2-MEL = assay type: functional, cell-based, Homo sapiens
Description: SANGER: Inhibition of human MZ2-MEL cell growth in a cell viability assay.

DB = assay type: functional, cell-based, Homo sapiens
Description: SANGER: Inhibition of human DB cell growth in a cell viability assay.

NB69 = assay type: functional, cell-based, Homo sapiens
Description: SANGER: Inhibition of human NB69 cell growth in a cell viability assay.

LC-2-ad = assay type: functional, cell-based, Homo sapiens
Description: SANGER: Inhibition of human LC-2-ad cell growth in a cell viability assay.

LB2518-MEL = assay type: functional, cell-based, Homo sapiens
Description: SANGER: Inhibition of human LB2518-MEL cell growth in a cell viability assay.

JAR = assay type: functional, cell-based, Homo sapiens
Description: SANGER: Inhibition of human JAR cell growth in a cell viability assay.

COLO-668 = assay type: functional, cell-based, Homo sapiens
Description: SANGER: Inhibition of human COLO-668 cell growth in a cell viability assay.

KE-37 = assay type: functional, cell-based, Homo sapiens
Description: SANGER: Inhibition of human KE-37 cell growth in a cell viability assay.

Lu-65 = assay type: functional, cell-based, Homo sapiens
Description: SANGER: Inhibition of human LU-65 cell growth in a cell viability assay.

SF-539 = assay type: functional, cell-based, Homo sapiens
Description: SANGER: Inhibition of human SF539 cell growth in a cell viability assay.

A253 cell line = assay type: functional, cell-based, Homo sapiens; details: Homo sapiens, A253
Description: SANGER: Inhibition of human A253 cell growth in a cell viability assay.

JVM-2 = assay type: functional, cell-based, Homo sapiens
Description: SANGER: Inhibition of human JVM-2 cell growth in a cell viability assay.

GI-1 = assay type: functional, cell-based, Homo sapiens
Description: SANGER: Inhibition of human GI-1 cell growth in a cell viability assay.

CW-2 = assay type: functional, cell-based, Homo sapiens
Description: SANGER: Inhibition of human CW-2 cell growth in a cell viability assay.

KURAMOCHI = assay type: functional, cell-based, Homo sapiens
Description: SANGER: Inhibition of human KURAMOCHI cell growth in a cell viability assay.

NKM-1 = assay type: functional, cell-based, Homo sapiens
Description: SANGER: Inhibition of human NKM-1 cell growth in a cell viability assay.

HT = assay type: functional, cell-based, Homo sapiens
Description: SANGER: Inhibition of human HT cell growth in a cell viability assay.

NB12 = assay type: functional, cell-based, Homo sapiens
Description: SANGER: Inhibition of human NB12 cell growth in a cell viability assay.

NCI-H446 = assay type: functional, cell-based, Homo sapiens
Description: SANGER: Inhibition of human NCI-H446 cell growth in a cell viability assay.

TE-8 = assay type: functional, cell-based, Homo sapiens
Description: SANGER: Inhibition of human TE-8 cell growth in a cell viability assay.

C8166 = assay type: functional, cell-based, Homo sapiens
Description: SANGER: Inhibition of human C8166 cell growth in a cell viability assay.

SK-UT-1 = assay type: functional, cell-based, Homo sapiens
Description: SANGER: Inhibition of human SK-UT-1 cell growth in a cell viability assay.

SNB-75 = assay type: functional, cell-based, Homo sapiens
Description: SANGER: Inhibition of human SNB75 cell growth in a cell viability assay.

OMC-1 = assay type: functional, cell-based, Homo sapiens
Description: SANGER: Inhibition of human OMC-1 cell growth in a cell viability assay.

ONS-76 = assay type: functional, cell-based, Homo sapiens
Description: SANGER: Inhibition of human ONS-76 cell growth in a cell viability assay.

RCC10RGB = assay type: functional, cell-based, Homo sapiens
Description: SANGER: Inhibition of human RCC10RGB cell growth in a cell viability assay.

KP-N-YS = assay type: functional, cell-based, Homo sapiens
Description: SANGER: Inhibition of human KP-N-YS cell growth in a cell viability assay.

L-428 = assay type: functional, cell-based, Homo sapiens
Description: SANGER: Inhibition of human L-428 cell growth in a cell viability assay.

HuTu80 = assay type: functional, cell-based, Homo sapiens, HUTU-80; details: hutu-80
Description: SANGER: Inhibition of human HUTU-80 cell growth in a cell viability assay.

## COc1cc2c(Nc3ccc(NC(=O)c4ccccc4)cc3)ncnc2cc1OCCCN1CCOCC1
HCE-T; Homo sapiens, HCE-T
  IC50: > 4 µM
KU812 cell line; Homo sapiens, KU812
  IC50: > 4 µM
SW872; Homo sapiens, SW872
  IC50: > 4 µM
697; Homo sapiens
  IC50: 0.739 µM
Calu-6; Homo sapiens, Calu-6
  IC50: > 4 µM
KG-1; Homo sapiens, KG-1
  IC50: 3.2 µM
TE-1; Homo sapiens, TE-1
  IC50: > 4 µM
MZ7-mel; Homo sapiens, MZ7-mel
  IC50: > 4 µM
LNCaP-Clone-FGC; Homo sapiens, LNCaP-Clone-FGC
  IC50: > 4 µM
DEL; Homo sapiens, DEL
  IC50: 2.75 µM
A101D; Homo sapiens, A101D
  IC50: > 4 µM
ACN; Homo sapiens, ACN
  IC50: > 4 µM
LU-134-A; Homo sapiens, LU-134-A
  IC50: > 4 µM
D-263MG; Homo sapiens, D-263MG
  IC50: 2.71 µM
MLMA; Homo sapiens, MLMA
  IC50: > 4 µM
MC116; Homo sapiens, MC116
  IC50: > 4 µM
GT3TKB; Homo sapiens, GT3TKB
  IC50: > 4 µM
NB5; Homo sapiens, NB5
  IC50: 1.84 µM
MHH-PREB-1; Homo sapiens, MHH-PREB-1
  IC50: > 4 µM
MMAC-SF; Homo sapiens, MMAC-SF
  IC50: > 4 µM
LS-513; Homo sapiens, LS-513
  IC50: > 4 µM
MZ2-MEL; Homo sapiens, MZ2-MEL
  IC50: > 4 µM
DB; Homo sapiens, DB
  IC50: > 4 µM
NB69; Homo sapiens, NB69
  IC50: 3.23 µM
LC-2-ad; Homo sapiens, LC-2-ad
  IC50: > 4 µM
LB2518-MEL; Homo sapiens, LB2518-MEL
  IC50: > 4 µM
JAR; Homo sapiens, JAR
  IC50: > 4 µM
COLO-668; Homo sapiens, COLO-668
  IC50: > 4 µM
KE-37; Homo sapiens, KE-37
  IC50: 1.21 µM
Lu-65; Homo sapiens, Lu-65
  IC50: > 4 µM
SF-539; Homo sapiens, SF-539
  IC50: > 4 µM
A253 cell line
  IC50: > 4 µM
JVM-2; Homo sapiens, JVM-2
  IC50: > 4 µM
GI-1; Homo sapiens, GI-1
  IC50: 3.26 µM
CW-2; Homo sapiens, CW-2
  IC50: > 4 µM
KURAMOCHI; Homo sapiens, KURAMOCHI
  IC50: > 4 µM
NKM-1; Homo sapiens, NKM-1
  IC50: 1.17 µM
HT; Homo sapiens, HT
  IC50: > 4 µM
NB12; Homo sapiens, NB12
  IC50: > 4 µM
NCI-H446; Homo sapiens, NCI-H446
  IC50: > 4 µM
TE-8; Homo sapiens, TE-8
  IC50: 2.49 µM
C8166; Homo sapiens, C8166
  IC50: > 4 µM
SK-UT-1; Homo sapiens, SK-UT-1
  IC50: 1.82 µM
SNB-75; Homo sapiens, SNB-75
  IC50: > 4 µM
OMC-1; Homo sapiens, OMC-1
  IC50: > 4 µM
ONS-76; Homo sapiens, ONS-76
  IC50: > 4 µM
RCC10RGB; Homo sapiens, RCC10RGB
  IC50: > 4 µM
KP-N-YS; Homo sapiens, KP-N-YS
  IC50: > 4 µM
L-428; Homo sapiens, L-428
  IC50: > 4 µM

## Cn1cnc2c(F)c(Nc3ccc(Br)cc3Cl)c(C(=O)NOCCO)cc21 [SELUMETINIB]
HCE-T; Homo sapiens, HCE-T
  IC50: 0.971 µM
KU812 cell line; Homo sapiens, KU812
  IC50: 0.212 µM
SW872; Homo sapiens, SW872
  IC50: 1.27 µM
697; Homo sapiens
  IC50: > 4 µM
Calu-6; Homo sapiens, Calu-6
  IC50: > 4 µM
KG-1; Homo sapiens, KG-1
  IC50: 0.895 µM
TE-1; Homo sapiens, TE-1
  IC50: > 4 µM
MZ7-mel; Homo sapiens, MZ7-mel
  IC50: > 4 µM
LNCaP-Clone-FGC; Homo sapiens, LNCaP-Clone-FGC
  IC50: > 4 µM
DEL; Homo sapiens, DEL
  IC50: > 4 µM
A101D; Homo sapiens, A101D
  IC50: 0.24 µM
ACN; Homo sapiens, ACN
  IC50: 0.567 µM
LU-134-A; Homo sapiens, LU-134-A
  IC50: > 4 µM
D-263MG; Homo sapiens, D-263MG
  IC50: 1.18 µM
MLMA; Homo sapiens, MLMA
  IC50: > 4 µM
MC116; Homo sapiens, MC116
  IC50: > 4 µM
GT3TKB; Homo sapiens, GT3TKB
  IC50: > 4 µM
NB5; Homo sapiens, NB5
  IC50: 2.57 µM
MHH-PREB-1; Homo sapiens, MHH-PREB-1
  IC50: > 4 µM
LS-513; Homo sapiens, LS-513
  IC50: 1.42 µM
MZ2-MEL; Homo sapiens, MZ2-MEL
  IC50: 0.394 µM
DB; Homo sapiens, DB
  IC50: > 4 µM
NB69; Homo sapiens, NB69
  IC50: 1.05 µM
LC-2-ad; Homo sapiens, LC-2-ad
  IC50: > 4 µM
LB2518-MEL; Homo sapiens, LB2518-MEL
  IC50: 0.0938 µM
JAR; Homo sapiens, JAR
  IC50: > 4 µM
COLO-668; Homo sapiens, COLO-668
  IC50: > 4 µM
KE-37; Homo sapiens, KE-37
  IC50: > 4 µM
Lu-65; Homo sapiens, Lu-65
  IC50: > 4 µM
SF-539; Homo sapiens, SF-539
  IC50: > 4 µM
A253 cell line
  IC50: > 4 µM
JVM-2; Homo sapiens, JVM-2
  IC50: > 4 µM
GI-1; Homo sapiens, GI-1
  IC50: > 4 µM
CW-2; Homo sapiens, CW-2
  IC50: > 4 µM
KURAMOCHI; Homo sapiens, KURAMOCHI
  IC50: > 4 µM
NKM-1; Homo sapiens, NKM-1
  IC50: 0.386 µM
HT; Homo sapiens, HT
  IC50: > 4 µM
NB12; Homo sapiens, NB12
  IC50: > 4 µM
NCI-H446; Homo sapiens, NCI-H446
  IC50: > 4 µM
TE-8; Homo sapiens, TE-8
  IC50: > 4 µM
C8166; Homo sapiens, C8166
  IC50: > 4 µM
SNB-75; Homo sapiens, SNB-75
  IC50: > 4 µM
OMC-1; Homo sapiens, OMC-1
  IC50: > 4 µM
ONS-76; Homo sapiens, ONS-76
  IC50: 0.245 µM
RCC10RGB; Homo sapiens, RCC10RGB
  IC50: > 4 µM
KP-N-YS; Homo sapiens, KP-N-YS
  IC50: > 4 µM
L-428; Homo sapiens, L-428
  IC50: > 4 µM

## CISPLATIN
HCE-T; hce-t
  IC50: 7.9 µM
KU812 cell line; ku812
  IC50: 49 µM
SW872; sw872
  IC50: 40.8 µM
697
  IC50: 1.89 µM
Calu-6; calu-6
  IC50: 75.8 µM
KG-1; kg-1
  IC50: 3.63 µM
TE-1; te-1
  IC50: 38.5 µM
MZ7-mel; mz7-mel
  IC50: 6.68 µM
LNCaP-Clone-FGC; lncap-clone-fgc
  IC50: 515 µM
DEL; del
  IC50: 3.67 µM
A101D; a101d
  IC50: 21.7 µM
ACN; acn
  IC50: 34.3 µM
LU-134-A; lu-134-a
  IC50: 3.94 µM
D-263MG; d-263mg
  IC50: 6.66 µM
MLMA; mlma
  IC50: 19.2 µM
MC116; mc116
  IC50: 86.9 µM
GT3TKB; gt3tkb
  IC50: 3.92 µM
NB5; nb5
  IC50: 5.48 µM
MHH-PREB-1; mhh-preb-1
  IC50: 23.8 µM
MMAC-SF; mmac-sf
  IC50: 531 µM
LS-513; ls-513
  IC50: 61.6 µM
MZ2-MEL; mz2-mel
  IC50: 13.4 µM
DB; db
  IC50: 2.14 µM
NB69; nb69
  IC50: 52.1 µM
LC-2-ad; lc-2-ad
  IC50: 12.2 µM
LB2518-MEL; lb2518-mel
  IC50: 116 µM
HuTu80
  IC50: 467 µM
JAR; jar
  IC50: 3.35 µM
COLO-668; colo-668
  IC50: 103 µM
KE-37; ke-37
  IC50: 31.5 µM
Lu-65; lu-65
  IC50: 559 µM
SF-539; sf-539
  IC50: 3.53 µM
JVM-2; jvm-2
  IC50: 568 µM
GI-1; gi-1
  IC50: 2.06 µM
CW-2; cw-2
  IC50: 24.5 µM
KURAMOCHI; kuramochi
  IC50: 159 µM
NKM-1; nkm-1
  IC50: 6.04 µM
HT; ht
  IC50: 252 µM
NB12; nb12
  IC50: 166 µM
NCI-H446; nci-h446
  IC50: 37.4 µM
TE-8; te-8
  IC50: 16.5 µM
C8166; c8166
  IC50: 208 µM
SK-UT-1; sk-ut-1
  IC50: 12.9 µM
SNB-75; snb-75
  IC50: 48 µM
OMC-1; omc-1
  IC50: 12.6 µM
ONS-76; ons-76
  IC50: 3.95 µM
RCC10RGB; rcc10rgb
  IC50: 917 µM
KP-N-YS; kp-n-ys
  IC50: 811 µM
L-428; l-428
  IC50: 18.9 µM
